Here are results for 2 compounds from US20080131404A1, “Hepatocytes” (priority 2004, published 2008).

The test system of data set [1] is human foetal liver cells. Put plainly: Neomycin titre and selection. Type of data set: cell-based. To be noted: 250 μg/ml neomycin, 2 week selection. Here is the method: To determine what concentration of neomycin to use on the liver cells exposed to the virus, in order to eliminate all or the majority of non-infected cells, but not the infected cells, a titre of neomycin was set up. Human foetal liver cells from a dissociated liver that had never been exposed to the immortalising virus were plated in 6-well plates and exposed to neomycin concentrations ranging from 0-900 μg/ml for 12 days in triplicate. 100, 500 and 2000 cells/well were plate and the cells were left for 2 days before the neomycin was added. The growth and proliferation of the cells were studied visually with the TMS-F microscope (Nikon). Based on the result from the neomycin titre a concentration of 250 μg/ml neomycin was used for 2 weeks on the liver cells exposed to the immortalising virus.

The subject of data set [2] is LIV0A07. Put plainly: Cyquant cell proliferation assay. Format: cell-based, human. Here is the method:
Growth rate was assessed using the Cyquant cell proliferation assay (Molecular Probes, Paisley, UK). Cells were grown in multiwell plates or 25 cm^2 flasks and experiments were performed according to the manufacturers instructions.
Growth rate was assessed using the Cyquant cell proliferation assay to compare growth of LIV0A07 over 5 days in […] 4-OHT.

Data set [3] deals with clone 20 hepatocytes (c-myc-ER infected human foetal hepatocytes). Put plainly: Telomerase assay (Telo TAGGG telomerase PCR ELISA). Format: cell-based. To be noted: hepatocytes cultured in 0.5-10 μM 4-OHT. Here is the method:
Cells from clone 20, p2 were cultured in T25 flasks for 1 week in media with 0, 100 nM, 1 μM and 10 μM 4-OHT for 1 week. The cells had been in culture for 2 months. Uninfected hepatocytes from the same liver were also used for the assay. These cells had been in culture for 3 weeks. The assay was performed according to the instructions for the Telo TAGGG telomerase PCR ELISAPWs (Roche). The plate reader GENios (Tecan) was used to analyse the results. Some of the fluorescence values were too high for the plate readers' spectra so a change to the protocol was done and the fluorescence was measured from only ⅓ of the final volume.

Data set [4] has as its system LIV0A07. Put plainly: Immunocytochemistry for hepatocyte markers albumin and CK-18. Type of data set: cell-based, human. To be noted: grown in the absence of 4-OHT for 48 h. Here is the method:
Immunocytochemistry was used for early assessment of the cell line. […] The human hepatoma cell line HuH7 was used as a positive control for liver markers, while a myc-immortalised neural stem cell line (197VM) cells were used as a negative control.
All staining was performed in multiwell plates using the following method. Medium was aspirated and cells washed once with PBS prior to fixing using 4% paraformaldehyde for 15 min at room temperature. Cells were then washed three times in PBS, before being permeabilised for 15 min using 0.1% triton x-100 in PBS. Cells were washed with PBS once more then blocked for 1 h in 10% normal goat serum (NGS) (Vector Laboratories, CA, USA) in PBS. Primary antibodies were applied in 1% NGS/PBS for 1 h at room temperature. Cells were washed three times in PBS then exposed to the secondary antibody in 1% NGS/PBS for 1 h at room temperature. Cells were washed three times in PBS and Hoechst, a dye that stains DNA, was added for 2 min at room temperature (1:25,000 in PBS). Cells were washed a further three times in PBS and left in the final wash. Analysis was performed using a fluorescence microscope (Leica DMRA). The secondary antibody excited at a wavelength of ˜488 nm and gave emission at ˜525 nm (green emission) while Hoechst excited at ˜350 nm and emitted at ˜425 nm (blue emission).

The subject of data set [5] is HuH7 cells. Put plainly: TaqMan analysis of CYP3A4 mRNA in HuH7. Type of data set: cell-based, human. The note with it: HuH7 samples. Here is the method:
(§1) A standard TaqMan protocol was following using a 96 well optical reaction plate (Applied Biosystems, CA, USA). All probes and primers were supplied by MWG-Biotech, Ebersberg, Germany (see table 3). All probes were labelled with 3′TAMRA and 5′FAM. The reaction plate was sealed with optical adhesive cover (Applied Biosystems, CA, USA) and centrifuged for 1 min at 500 g before loading onto the TaqMan machine (ABI prism 7000 sequence detection system) and results analysed with ABI prism 7000 SDS software.
(In qPCR the cycle at which signal appears reflects the starting amount.)

The test system of data set [6] is LIV0A07. Put plainly: TaqMan analysis of CYP3A4/CYP3A7 mRNA in LIV0A07. Type of data set: cell-based, human. Here is the method: as §1

For the compound `NC[C@@H]1O[C@H](O[C@H]2[C@@H](O)[C@H](O[C@@H]3[C@@H](O)[C@H](N)C[C@H](N)[C@H]3O[C@H]3O[C@H](CN)[C@@H](O)[C@H](O)[C@H]3N)O[C@@H]2CO)[C@H](N)[C@@H](O)[C@@H]1O` [neomycin, Neomycin], the “survival of noninfected cells during selection” value in data set [1] was “majority of the noninfected cells died”.
Take 4-hydroxytamoxifen [4-OHT]: the proliferation result is listed as “Little proliferation” in data set [2] (0.1 mM 4-OHT, 5 days); “expanded to a greater extent” in data set [2] (0.5 and 1.0 mM 4-OHT, 5 days). Moreover, in data set [2] (1.0 mM 4-OHT, initial slow proliferation after seeding), the “toxicity to the cells” value is on record as “may be slightly toxic”. The “optimum concentration for 4-OHT dependent growth” value in data set [2] (in the medium, 5 days) was 0.5 to 1.0 mM. For the same compound, the telomerase expression entry in data set [3] is recorded as “up regulates telomerase expression”. Besides, the “albumin and CK-18 staining, differentiated cultures” value in data set [4] is recorded as “slightly stronger”. Also, in data set [5], the “effect of 4-OHT on CYP3A4 mRNA expression” value was “no effect”. In addition, the “CYP3A7 mRNA level on differentiation” value in data set [6] (absence of 4-OHT) is recorded as “did not display the same differentiation induced increase”. The “CYP3A4 mRNA level, differentiated vs undifferentiated cultures” value in data set [6] (grown in the absence of 4-OHT for 72 h compared to cultures with 4-OHT) is given as “approximately 15 fold”.
